Laboratory results reported in patent publication US9067922B2, “Chemical compounds” (Pfizer Limited, priority 2013, dated 2015).

The compounds below were run against URAT-1 transporter (Homo sapiens (Human), UniProt Q96S37) (assay: URAT-1 inhibitor activity: [14C]-uric acid uptake in CHO-URAT1(L)GFP#8 (CHO#8) cells, scintillation proximity). Settings: inhibition of [14C]-uric acid (30 nM) uptake into CHO#8 cells; compound 0 to 10 μM; 4 parameter logistic fit.
Type: cell-based
From the text: The nucleotide sequence for the long isoform of URAT1 (NM_144585) was C-terminally fused to that of enhanced green fluorescent protein (eGFP) (hereinafter referred to as URAT1(L)GFP). The combined sequence was codon-optimised and custom synthesized. The synthesized sequence was generated in pDONR221 Gateway entry vector (Invitrogen Life Technologies) prior to cloning in pLenti6.3/V5 Gateway destination vector (Invitrogen Life Technologies).
Lentiviral particles were generated according to ViraPower HiPerform expression system procedure (Invitrogen Life Technologies) and used to transduce CHO cells. […] The clonal pools were sorted using fluorescence-activated cell sorting (FACS) on the basis of GFP expression with the gating set at the top 50% of expression into single cells which were subsequently expanded to generate clonal lines. […] This cell line was used for all screening activities and is referred to as CHO-URAT1(L)GFP#8 or CHO#8.
The potency of the compounds of formula (I) as inhibitors of the URAT-1 transporter was determined as follows.
CHO#8 cells were cultured in cell line maintenance flasks in medium consisting of Dulbecco's modified Eagle medium (DMEM) with high glucose and sodium pyruvate (4.5 g of glucose per liter, Invitrogen Life Technologies), supplemented with heat-inactivated foetal bovine serum (FBC, 10% v/v), 1×NEAA (non-essential amino acids) and blasticidin (10 μg/ml). Cultures were grown in 175 cm^2 tissue culture flasks in a humidified incubator at approximately 37° C. in approximately 95% air/5% CO2. Near confluent CHO#8 cell cultures were harvested by trypsinisation, re-suspended in culture medium and the process was repeated once or twice weekly to provide sufficient cells for use.
Assay ready flasks were generated by the same method, except the cells were not cultured in blasticidin.
Assay ready frozen cells were generated by freezing 40,000,000 cells in 1 ml of FBS (without blasticidin) containing 10% DMSO per vial. One vial was sufficient for 5 assay plates. Each vial was thawed rapidly to 37° C., washed and re-suspended in pre-warmed culture medium for seeding onto assay plates.
CHO#8 cells were seeded onto Cytostar™ 96-well plates at a density of […]. The cells were cultured for 1 day at approximately 37° C. in a humidified incubator containing approximately 5% CO2 in air. After approximately 24 hours culture, cells were used for uptake experiments.
On the day of assay, culture medium was removed from the wells and the cells were washed once with 50 μL of chloride-containing buffer (136.7 mM NaCl, 5.36 mM KCl, 0.952 mM CaCl2, 0.441 mM KH2PO4, 0.812 mM MgSO4, 5.6 mM D-glucose, 0.383 mM Na2HPO4.2H2O, 10 mM HEPES, pH 7.4 with NaOH). The cells were pre-incubated with another 50 μL of chloride-containing buffer for one hour at approximately 37° C. in a humidified incubator containing approximately 5% CO2 in air.
Assay compound plates were prepared by diluting the compounds of formula (I) with chloride-free buffer (125 mM Na-gluconate, 4.8 mM K-gluconate, 1.3 mM Ca-gluconate, 1.2 mM KH2PO4, 1.2 mM MgSO4, 5.6 mM D-glucose, 25 mM HEPES, pH 7.4 with NaOH) in 100% DMSO to a final concentration of 1% DMSO. [^14C]-Uric Uric acid working stock was made by addition of radiolabeled compound to a final concentration of 120 nM in chloride-free buffer. In all wells, the final assay concentration of solvent (DMSO) was 0.25%; the final assay concentration of [^14C]-uric acid was 30 nM in chloride-free buffer and the final compound of formula (I) concentrations ranged from 0 to 10 μM.
After pre-incubation, cells were washed with 50 μL of chloride-free buffer and another 50 μL of chloride-free buffer was added.

Sequence of URAT-1 transporter (Q96S37 other isoform, or with tags, fused parts or gaps): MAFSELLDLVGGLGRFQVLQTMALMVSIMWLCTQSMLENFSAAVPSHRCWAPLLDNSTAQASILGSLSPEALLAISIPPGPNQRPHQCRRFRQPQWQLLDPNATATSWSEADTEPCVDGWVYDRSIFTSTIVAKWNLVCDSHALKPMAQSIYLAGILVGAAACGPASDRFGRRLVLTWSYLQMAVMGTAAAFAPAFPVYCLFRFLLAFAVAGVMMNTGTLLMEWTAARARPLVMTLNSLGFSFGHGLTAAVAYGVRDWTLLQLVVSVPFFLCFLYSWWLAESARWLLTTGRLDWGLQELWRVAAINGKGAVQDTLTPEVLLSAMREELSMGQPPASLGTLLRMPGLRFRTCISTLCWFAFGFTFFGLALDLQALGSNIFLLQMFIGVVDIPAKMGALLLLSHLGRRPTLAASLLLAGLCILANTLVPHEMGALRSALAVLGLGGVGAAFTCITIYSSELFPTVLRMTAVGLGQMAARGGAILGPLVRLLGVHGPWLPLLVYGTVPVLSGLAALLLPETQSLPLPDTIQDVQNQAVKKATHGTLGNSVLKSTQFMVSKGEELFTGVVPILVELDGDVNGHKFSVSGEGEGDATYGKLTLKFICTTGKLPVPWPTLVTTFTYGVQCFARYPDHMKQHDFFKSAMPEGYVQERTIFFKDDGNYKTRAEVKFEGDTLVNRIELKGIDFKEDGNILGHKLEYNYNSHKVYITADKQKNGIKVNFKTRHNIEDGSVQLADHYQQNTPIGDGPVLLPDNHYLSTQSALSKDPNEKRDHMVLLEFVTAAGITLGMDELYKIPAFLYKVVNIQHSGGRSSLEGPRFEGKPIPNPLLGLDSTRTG

| Structure (SMILES) | IC50 |
| --- | --- |
| Cc1cc(Oc2ccc(S(=O)(=O)Nc3ccc(F)cn3)cc2C#N)c(C(C)C)cc1Cl [Example 133, 4-[4-chloro-5-methyl-2-(propan-2-yl)phenoxy]-3-cyano-N-(5-fluoropyridin-2-yl)benzenesulfonamide] | 793 nM |
| N#Cc1cc(S(=O)(=O)Nc2ccc(F)cn2)ccc1Oc1ccccn1 [Example 187, 3-cyano-N-(5-fluoropyridin-2-yl)-4-(pyridin-2-yloxy)benzenesulfonamide] | > 10000 nM |
| COc1c(F)ccc(Oc2ccc(S(=O)(=O)Nc3ccc(F)cn3)cc2C#N)c1C [Example 165, 3-cyano-4-(4-fluoro-3-methoxy-2-methylphenoxy)-N-(5-fluoropyridin-2-yl)benzenesulfonamide] | 139 nM |
| N#Cc1cc(S(=O)(=O)Nc2ccc(F)cn2)ccc1Oc1ccccc1OC(F)(F)F [Example 27, 3-cyano-N-(5-fluoropyridin-2-yl)-4-[2-(trifluoromethoxy)phenoxy]benzenesulfonamide] | 274 nM |
| Cc1ccc(Oc2ccc(S(=O)(=O)Nc3ccc(F)cn3)cc2C#N)c(F)c1F [Example 128, 3-cyano-4-(2,3-difluoro-4-methylphenoxy)-N-(5-fluoropyridin-2-yl)benzenesulfonamide] | > 10000 nM |
| CCc1ccc(Oc2ccc(S(=O)(=O)Nc3ccc(F)cn3)cc2C#N)cc1 [Example 50, 3-cyano-4-(4-ethylphenoxy)-N-(5-fluoropyridin-2-yl)benzenesulfonamide] | > 10000 nM |
| COc1cc(F)c(F)cc1Oc1ccc(S(=O)(=O)Nc2ccc(F)cn2)cc1C#N [Example 144, 3-cyano-4-(4,5-difluoro-2-methoxyphenoxy)-N-(5-fluoropyridin-2-yl)benzenesulfonamide] | 40 nM |
| N#Cc1ccc(Oc2cc(F)c(S(=O)(=O)Nc3cccnn3)cc2Cl)cc1Cl [compound 227] | > 10000 nM |
| CCOc1ncc(Oc2ccc(S(=O)(=O)Nc3ccc(F)cn3)cc2C#N)cc1Cl [Example 125, 4-[(5-chloro-6-ethoxypyridin-3-yl)oxy]-3-cyano-N-(5-fluoropyridin-2-yl)benzenesulfonamide] | 237 nM |
| Cc1ccncc1Oc1ccc(S(=O)(=O)Nc2ccc(F)cn2)cc1C#N [Example 198, 3-cyano-N-(5-fluoropyridin-2-yl)-4-[(4-methylpyridin-3-yl)oxy]benzenesulfonamide] | 792 nM |
| O=S(=O)(Nc1ccc(F)cn1)c1ccc(Oc2cnc(CO)c(Cl)c2)cc1F [compound 239, 4-{[5-chloro-6-(hydroxymethyl)pyridin-3-yl]oxy}-2-fluoro-N-(5-fluoropyridin-2-yl)benzenesulfonamide] | 2 nM |
| Cc1cc(Oc2ccc(S(=O)(=O)Nc3ccc(F)cn3)cc2C#N)cc(C(C)C)c1 [Example 105, 3-cyano-N-(5-fluoropyridin-2-yl)-4-[3-methyl-5-(propan-2-yl)phenoxy]benzenesulfonamide] | > 10000 nM |
| N#Cc1cc(S(=O)(=O)Nc2cccnn2)ccc1Oc1ccc(Cl)cc1OC(F)F [Example 86, 4-[4-chloro-2-(difluoromethoxy)phenoxy]-3-cyano-N-(pyridazin-3-yl)benzenesulfonamide] | > 5330 nM |
| N#Cc1cc(S(=O)(=O)Nc2ccc(F)cn2)ccc1Oc1ccc(Br)cc1 [Example 163, 4-(4-bromophenoxy)-3-cyano-N-(5-fluoropyridin-2-yl)benzenesulfonamide] | > 10000 nM |

Results, then the compound that gave them:

| IC50 | Structure (SMILES) |
| --- | --- |
| > 10000 nM | CCOc1ccc(Oc2ccc(S(=O)(=O)Nc3ccc(F)cn3)cc2C#N)cc1Cl [Example 116, 4-(3-chloro-4-ethoxyphenoxy)-3-cyano-N-(5-fluoropyridin-2-yl)benzenesulfonamide] |
| 80 nM | Cc1ccc(Cl)cc1Oc1ccc(S(=O)(=O)Nc2ccc(F)cn2)cc1C#N [Example 39, 4-(5-chloro-2-methylphenoxy)-3-cyano-N-(5-fluoropyridin-2-yl)benzenesulfonamide] |
| 514 nM | Cc1cc(Cl)cc(Oc2ccc(S(=O)(=O)Nc3ccc(F)cn3)cc2C#N)c1C [Example 159, 4-(5-chloro-2,3-dimethylphenoxy)-3-cyano-N-(5-fluoropyridin-2-yl)benzenesulfonamide] |
| 182 nM | N#Cc1cc(S(=O)(=O)Nc2ccc(F)cn2)ccc1Oc1cc(Cl)ccc1C#N [Example 65, 4-(5-chloro-2-cyanophenoxy)-3-cyano-N-(5-fluoropyridin-2-yl)benzenesulfonamide] |
| 80 nM | Cc1cc(Oc2ccc(S(=O)(=O)Nc3ccc(F)cn3)cc2C#N)ccc1Cl [Example 34, 4-(4-chloro-3-methylphenoxy)-3-cyano-N-(5-fluoropyridin-2-yl)benzenesulfonamide] |
| 135 nM | N#Cc1cc(S(=O)(=O)Nc2ccc(F)cn2)ccc1Oc1cccc(Cl)c1F [Example 24, 4-(3-chloro-2-fluorophenoxy)-3-cyano-N-(5-fluoropyridin-2-yl)benzenesulfonamide] |
| 98 nM | Cc1ccc(F)c(Oc2ccc(S(=O)(=O)Nc3ccc(F)cn3)cc2C#N)c1Cl [Example 108, 4-(2-chloro-6-fluoro-3-methylphenoxy)-3-cyano-N-(5-fluoropyridin-2-yl)benzenesulfonamide] |
| 19 nM | N#Cc1cc(S(=O)(=O)Nc2ccc(F)cn2)ccc1Oc1ccc(F)c(Cl)c1 [Example 78, 4-(3-chloro-4-fluorophenoxy)-3-cyano-N-(5-fluoropyridin-2-yl)benzenesulfonamide] |
| 43 nM | Cc1cc(Oc2ccc(S(=O)(=O)Nc3ccc(F)cn3)cc2C#N)ccc1F [Example 141, 3-cyano-4-(4-fluoro-3-methylphenoxy)-N-(5-fluoropyridin-2-yl)benzenesulfonamide] |
| 167 nM | COc1ccc(Cl)c(Oc2ccc(S(=O)(=O)Nc3ccc(F)cn3)cc2C#N)c1 [Example 44, 4-(2-chloro-5-methoxyphenoxy)-3-cyano-N-(5-fluoropyridin-2-yl)benzenesulfonamide] |
| 131 nM | COc1c(Oc2ccc(S(=O)(=O)Nc3ccc(F)cn3)cc2C#N)ccc(F)c1C [Example 173, 3-cyano-4-(4-fluoro-2-methoxy-3-methylphenoxy)-N-(5-fluoropyridin-2-yl)benzenesulfonamide] |
| 3520 nM | N#Cc1ccc(Oc2ccc(S(=O)(=O)Nc3ccc(F)cn3)cc2C#N)c(OC(F)F)c1 [Example 67, 3-cyano-4-[4-cyano-2-(difluoromethoxy)phenoxy]-N-(5-fluoropyridin-2-yl)benzenesulfonamide] |
| 86 nM | N#Cc1cc(S(=O)(=O)Nc2ccc(F)cn2)ccc1Oc1cccc(Cl)c1 [Example 25, 4-(3-chlorophenoxy)-3-cyano-N-(5-fluoropyridin-2-yl)benzenesulfonamide] |
| 90 nM | Cc1ccc(F)c(Oc2ccc(S(=O)(=O)Nc3ccc(F)cn3)cc2C#N)c1F [Example 119, 3-cyano-4-(2,6-difluoro-3-methylphenoxy)-N-(5-fluoropyridin-2-yl)benzenesulfonamide] |
| 38 nM | COc1ccc(Oc2ccc(S(=O)(=O)Nc3ccc(F)cn3)cc2C#N)cc1F [Example 132, 3-cyano-4-(3-fluoro-4-methoxyphenoxy)-N-(5-fluoropyridin-2-yl)benzenesulfonamide] |
| 79 nM | COc1cc(Cl)ccc1Oc1ccc(S(=O)(=O)Nc2ccc(F)cn2)cc1C#N [Example 143, 4-(4-chloro-2-methoxyphenoxy)-3-cyano-N-(5-fluoropyridin-2-yl)benzenesulfonamide] |
| 321 nM | N#Cc1ccc(Cl)c(Oc2ccc(S(=O)(=O)Nc3ccc(F)cn3)cc2C#N)c1 [Example 63, 4-(2-chloro-5-cyanophenoxy)-3-cyano-N-(5-fluoropyridin-2-yl)benzenesulfonamide] |
| 84 nM | Cc1ccc(F)cc1Oc1ccc(S(=O)(=O)Nc2ccc(F)cn2)cc1C#N [Example 21, 3-cyano-4-(5-fluoro-2-methylphenoxy)-N-(5-fluoropyridin-2-yl)benzenesulfonamide] |
